The term IC50 denotes the point on the concentration scale where inhibition reaches its midpoint.

Data set [1] has as its target T1, NAD(P)H dehydrogenase [quinone] 1 (Homo sapiens, UniProt P15559). The data set is described as follows: Prodrug activation assessed as human NQO1-mediated compound reduction by measuring specific enzyme activity at 100 uM measured every 20 mins by HPLC based UV-Vis method.
Data set [2] in a line: Prodrug activation assessed as Escherichia coli NR-mediated compound reduction by measuring specific enzyme activity at 100 uM measured every 20 mins by HPLC based UV-Vis method.
The nature of data set [3]: Prodrug activation assessed as Escherichia coli NR-mediated compound reduction by measuring specific enzyme activity at 100 uM measured every 20 mins by HPLC based UV-vis method relative to CB1954.
The target in data set [4] is T1, NAD(P)H dehydrogenase [quinone] 1. The data set is described as follows: Prodrug activation assessed as human NQO1-mediated compound reduction by measuring specific enzyme activity at 100 uM measured every 20 mins by HPLC based UV-Vis method relative to CB1954.
Data set [5] in a line: Cytotoxicity against Chinese hamster F179 transformed cells assessed as reduction in cell viability after 3 days by SRB assay. It is filed as toxicity, cell-based, Cricetulus griseus. In general terms: In SRB staining, fixed cells bind dye roughly in proportion to their protein.
Data set [6] is described as follows: Cytotoxicity against Chinese hamster DT7 cells expressing human NQO1 assessed as reduction in cell viability after 3 days by SRB assay. It is filed as functional, cell-based, Cricetulus griseus.
The nature of data set [7]: Cytotoxicity against Chinese hamster T116 cells expressing Escherichia coli Nitroreductase assessed as reduction in cell viability after 3 days by SRB assay. It is filed as functional, Cricetulus griseus.
Data set [8] can be described thus: Cytotoxicity against Chinese hamster 186/6 cells expressing rat NQO1 assessed as reduction in cell viability after 3 days by SRB assay. It is filed as functional, cell-based, Cricetulus griseus.
Data set [9] is described as follows: Drug metabolism assessed as Escherichia coli NR-mediated compound reduction by measuring specific enzyme activity at 100 uM measured every 20 mins by HPLC based UV-Vis method. It is filed as ADME.
Data set [10] deals with T1, NAD(P)H dehydrogenase [quinone] 1. The data set is described as follows: Drug metabolism assessed as human NQO1-mediated compound reduction by measuring specific enzyme activity at 100 uM measured every 20 mins by HPLC based UV-Vis method. It is filed as ADME.

T1 sequence (P15559 whole entry): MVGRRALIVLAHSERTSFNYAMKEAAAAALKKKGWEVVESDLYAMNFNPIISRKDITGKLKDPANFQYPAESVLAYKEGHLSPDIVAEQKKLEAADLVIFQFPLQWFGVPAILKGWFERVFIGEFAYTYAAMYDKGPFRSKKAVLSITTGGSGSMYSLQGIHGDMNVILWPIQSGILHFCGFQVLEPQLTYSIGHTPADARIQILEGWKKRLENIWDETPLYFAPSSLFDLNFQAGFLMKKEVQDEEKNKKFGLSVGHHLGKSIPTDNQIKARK

Take `O=[N+]([O-])c1ccc(N2Cc3ccccc3CC2CCl)c([N+](=O)[O-])c1` (stereo unspecified): the Activity in [1] was determined as 0.0033 µmol/min/mg; in data set [2] it was 0.254 µmol/min/mg. The results for the “fold change (FC)” value in data set [3] and in data set [4] were 0.137 and 0.532, respectively. The IC50 in data set [5] stood at 49 µM; in [6], 43.1 µM; in data set [7], 1.2 µM; in [8], 36.6 µM.
As to `O=[N+]([O-])c1ccc(N2Cc3ccccc3CC2CCl)cc1` (stereo unspecified), the Activity in [1] is less than 0.0001 µmol/min/mg; in data set [2], less than 0.01 µmol/min/mg. The “fold change (FC)” value is given as less than 0.001 in data set [3] and less than 0.01 in [4]. In addition, the 50% inhibitory concentration (IC50) in data set [5] is 3.3 µM; in [6] it was 2.8 µM; in [7] it was 3.1 µM; in [8] it was 2.9 µM.
For the molecule `O=[N+]([O-])c1cc(C(F)(F)F)ccc1N1Cc2ccccc2CC1CCl` (stereo unspecified), the values for the Activity in data set [1] and in data set [2] were 0.0177 µmol/min/mg and less than 0.01 µmol/min/mg, respectively. Besides, the “fold change (FC)” value is on record as less than 0.001 in [3] and 2.855 in [4]. In addition, the concentration for half-maximal inhibition (IC50) came out at 36.6 µM in data set [5], 31.2 µM in [6], 39.1 µM in data set [7] and 34.4 µM in data set [8].
Regarding `O=[N+]([O-])c1ccc(N2Cc3ccccc3CC2CCl)c(C(F)(F)F)c1` (stereo unspecified), the Activity in [1] is 0.027 µmol/min/mg; in [2] it was 0.166 µmol/min/mg. Also, the entries for the “fold change (FC)” value in [3] and in [4] were 0.089 and 4.355, respectively. In addition, the IC50 was 37.8 µM in data set [5], 27.5 µM in data set [6], 3.1 µM in data set [7] and 22.6 µM in data set [8].
As to `O=[N+]([O-])c1ccc(N2Cc3ccccc3CC2CCl)cc1C(F)(F)F` (stereo unspecified), the Activity in data set [1] turned out to be 0.012 µmol/min/mg; in [2], 0.106 µmol/min/mg. Further, the “fold change (FC)” value is given as 0.057 in data set [3] and 1.936 in data set [4]. Further, the half-inhibitory concentration (IC50) in [5] is 7.3 µM; in data set [6], 5.9 µM; in data set [7], 2.9 µM; in data set [8], 5.8 µM.
Regarding `NC(=O)c1cc(N2CC2)c([N+](=O)[O-])cc1[N+](=O)[O-]` [TRETAZICAR], the Activity in data set [9] was determined as 1.86 µmol/min/mg; in data set [10], 0.0062 µmol/min/mg. Besides, the IC50 in data set [5] came to 196 µM; in data set [6], 1.5 µM; in data set [7] it was 0.03 µM; in [8], 0.05 µM.

Values taken from ChEMBL document CHEMBL3872239, “Studies relating to the synthesis, enzymatic reduction and cytotoxicity of a series of nitroaromatic prodrugs” (Bioorg Med Chem Lett, 2016).
